Reference: patent US9096593B2, “Compounds and methods for kinase modulation, and indications therefor” (Plexxikon Inc., priority 2009, dated 2015)

What was measured:
BCR-FMS/BaF3 cells = BCR-FMS/BaF3 cells (Homo sapiens, UniProt P07333); assay: BCR-FMS/BaF3 cell proliferation assay (ATPlite); assay type: cell-based
Description: Compounds are assessed in a variety of cell based assays. For example BCR-FMS/BaF3, BCR-KIT/BaF3, M-NFS-60, M-07e, and BAC1.2F5 cell proliferation assays are used to assess inhibitory activity of Fms or Kit and MV-4-11 cell proliferation assay is used to assess inhibitory activity in Flt-3. […] On day 1, cells are counted, then centrifuged in a conical tube for 5 minutes at 1000 rpm. The supernatant is removed and cells are re-suspended as follows: • BCR-FMS/BaF3 and BCR-KIT/BaF3: resuspend in growth media+1 mg/mL G418 (without WEHI/IL-3) to 2×10^5 cells/mL. • M-NFS-60: resuspend in growth media +62 ng/mL murine M-CSF to 5×10^5 cells/mL. • M-07e: resuspend in growth media +200 ng/mL human SCF to 5×10^5 cells/mL. • BAC1.2F5: resuspend in growth media +36 ng/mL murine M-CSF to 1.4×10^5 cells/mL. • MV-4-11: resuspend in growth media +10% FBS to 5×10^5 cells/mL. […] On day 2, compound at a maximum concentration of 5 mM is serially diluted 1:3 for a total of 8 point titration with DMSO as a control. A 1 μL aliquot of each dilution point is added to 249 μL growth media and 50 μL is added to a well containing cells, providing 10 μM compound for the maximum concentration point. The cells are incubated for 3 days at 37° C. in 5% CO2. […] ATPlite is added to each well as follows: • BCR-FMS/BaF3 and BCR-KIT/BaF3: 25 μL per well. • M-NFS-60: 25 μL per well. • M-07c: 40 μL per well. • BAC1.2F5: 50 μL per well. • MV-4-11: 40 μL per well. The cells are incubated at room temperature for 10 minutes, then luminescence is read on Safire reader. The measured luminescence correlates directly with cell number, such that the reading as a function of compound concentration is used to determine the IC50 value.

BCR-KIT/BaF3 cells = BCR-KIT/BaF3 cells (Homo sapiens, UniProt P10721); assay: BCR-KIT/BaF3 cell proliferation assay (ATPlite); assay type: cell-based; conditions: read-out: BCR/BaF3 (IC50 μM) Kit
Chain of BCR-KIT/BaF3 cells (P10721 26-976 limits assumed, change not shown): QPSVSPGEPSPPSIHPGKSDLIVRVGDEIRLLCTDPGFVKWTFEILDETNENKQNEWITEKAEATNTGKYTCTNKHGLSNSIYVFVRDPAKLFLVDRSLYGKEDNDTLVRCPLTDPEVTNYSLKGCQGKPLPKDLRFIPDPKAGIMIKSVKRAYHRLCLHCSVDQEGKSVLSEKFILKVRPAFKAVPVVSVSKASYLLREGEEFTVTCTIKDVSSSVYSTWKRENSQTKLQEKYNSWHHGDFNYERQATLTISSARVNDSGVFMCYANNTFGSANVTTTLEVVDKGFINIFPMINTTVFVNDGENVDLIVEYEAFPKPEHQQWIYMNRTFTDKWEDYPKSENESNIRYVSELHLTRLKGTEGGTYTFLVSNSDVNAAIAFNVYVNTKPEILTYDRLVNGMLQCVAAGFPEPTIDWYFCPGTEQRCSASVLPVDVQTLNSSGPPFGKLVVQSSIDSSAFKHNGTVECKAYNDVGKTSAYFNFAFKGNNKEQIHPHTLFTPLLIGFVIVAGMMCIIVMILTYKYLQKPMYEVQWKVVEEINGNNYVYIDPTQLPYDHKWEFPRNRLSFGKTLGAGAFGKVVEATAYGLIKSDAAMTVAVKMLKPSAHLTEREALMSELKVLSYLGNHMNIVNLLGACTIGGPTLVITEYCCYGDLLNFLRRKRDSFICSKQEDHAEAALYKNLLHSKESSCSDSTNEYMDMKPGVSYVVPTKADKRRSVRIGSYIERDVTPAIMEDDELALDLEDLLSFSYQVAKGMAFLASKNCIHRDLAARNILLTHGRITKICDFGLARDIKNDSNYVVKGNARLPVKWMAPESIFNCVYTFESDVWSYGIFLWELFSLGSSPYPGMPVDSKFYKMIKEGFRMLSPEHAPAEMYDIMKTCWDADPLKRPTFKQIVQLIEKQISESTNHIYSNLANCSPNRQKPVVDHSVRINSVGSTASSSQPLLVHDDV
Description: Compounds are assessed in a variety of cell based assays. For example BCR-FMS/BaF3, BCR-KIT/BaF3, M-NFS-60, M-07e, and BAC1.2F5 cell proliferation assays are used to assess inhibitory activity of Fms or Kit and MV-4-11 cell proliferation assay is used to assess inhibitory activity in Flt-3. Reagent and assay conditions are as follows: • BCR-FMS/BaF3 and BCR-KIT/BaF3 cells: • Maintained in RPMI containing 10% FBS, 1% PenStrep, 1% NEAA, and 1% L-Glutamine, supplemented with 1 mg/mL G418 and 5% WEHI-CM (or recombinant murine IL-3). • Confluent cells are split 1:50 to 1:100 every 3-4 days. • M-NFS-60 cells (ATCC #CRL-1838): • Maintained in RPMI containing 10% FBS, 1% Hepes, 1% NaPyruvate, and 0.45% Glucose, supplemented with 62 ng/mL murine M-CSF. • Confluent cells are split 1:20 every 3-4 days. • M-07e cells (DSMZ #ACC 104): • Maintained in IMDM containing 10% FBS, supplemented with either 200 ng/mL human SCF or […] SCF (R&D Systems 255-SC). • Confluent cells are split 1:5 to 1:10 every 3-4 days. • BAC1.2F5 cells: • Maintained in Alpha-MEM containing 10% Newborn Calf Serum (Invitrogen #26010-074) supplemented with 36 ng/mL murine M-CSF. • Confluent cells are split 1:4 every 3-4 days. • MV-4-11 cells: • Maintained in Iscove's Modified Dulbecco's Medium containing 10% FBS. • Confluent cells are split 1:4 every 3-4 days. On day 1, cells are counted, then centrifuged in a conical tube for 5 minutes at 1000 rpm. The supernatant is removed and cells are re-suspended as follows: • BCR-FMS/BaF3 and BCR-KIT/BaF3: resuspend in growth media+1 mg/mL G418 (without WEHI/IL-3) to 2×10^5 cells/mL. • M-NFS-60: resuspend in growth media +62 ng/mL murine M-CSF to 5×10^5 cells/mL. • M-07e: resuspend in growth media +200 ng/mL human SCF to 5×10^5 cells/mL. • BAC1.2F5: resuspend in growth media +36 ng/mL murine M-CSF to 1.4×10^5 cells/mL. • MV-4-11: resuspend in growth media +10% FBS to 5×10^5 cells/mL. The cells are plated (50 μL) in each well of a 96-well dish (Corning 3610) and incubated at 37° C. in 5% CO2 overnight, cells plated to a final concentration of cells as follows: • BCR-FMS/BaF3 and BCR-KIT/BaF3: 10,000 cells per well. • M-NFS-60: 25,000 cells per well. • M-07e: 25,000 cells per well. • BAC1.2F5: 7,000 cells per well. • MV-4-11: 25,000 cells per well. On day 2, compound at a maximum concentration of 5 mM is serially diluted 1:3 for a total of 8 point titration with DMSO as a control. A 1 μL aliquot of each dilution point is added to 249 μL growth media and 50 μL is added to a well containing cells, providing 10 μM compound for the maximum concentration point. The cells are incubated for 3 days at 37° C. in 5% CO2. On day 5, ATPlite 1 step Luminescence Assay System (Perkin Elmer #6016739) is brought to room temperature along with the cell cultures. ATPlite is added to each well as follows: • BCR-FMS/BaF3 and BCR-KIT/BaF3: 25 μL per well. • M-NFS-60: 25 μL per well. • M-07c: 40 μL per well. • BAC1.2F5: 50 μL per well. • MV-4-11: 40 μL per well. The cells are incubated at room temperature for 10 minutes, then luminescence is read on Safire reader. The measured luminescence correlates directly with cell number, such that the reading as a function of compound concentration is used to determine the IC50 value.

Fms kinase = Fms kinase (Homo sapiens (Human), UniProt P07333); assay: Fms kinase biochemical activity assay (AlphaScreen, biotin-(E4Y)10 phosphorylation); conditions: read-out: Biochemical activity (IC50 μM) Fms
Chain of Fms kinase (P07333 20-972): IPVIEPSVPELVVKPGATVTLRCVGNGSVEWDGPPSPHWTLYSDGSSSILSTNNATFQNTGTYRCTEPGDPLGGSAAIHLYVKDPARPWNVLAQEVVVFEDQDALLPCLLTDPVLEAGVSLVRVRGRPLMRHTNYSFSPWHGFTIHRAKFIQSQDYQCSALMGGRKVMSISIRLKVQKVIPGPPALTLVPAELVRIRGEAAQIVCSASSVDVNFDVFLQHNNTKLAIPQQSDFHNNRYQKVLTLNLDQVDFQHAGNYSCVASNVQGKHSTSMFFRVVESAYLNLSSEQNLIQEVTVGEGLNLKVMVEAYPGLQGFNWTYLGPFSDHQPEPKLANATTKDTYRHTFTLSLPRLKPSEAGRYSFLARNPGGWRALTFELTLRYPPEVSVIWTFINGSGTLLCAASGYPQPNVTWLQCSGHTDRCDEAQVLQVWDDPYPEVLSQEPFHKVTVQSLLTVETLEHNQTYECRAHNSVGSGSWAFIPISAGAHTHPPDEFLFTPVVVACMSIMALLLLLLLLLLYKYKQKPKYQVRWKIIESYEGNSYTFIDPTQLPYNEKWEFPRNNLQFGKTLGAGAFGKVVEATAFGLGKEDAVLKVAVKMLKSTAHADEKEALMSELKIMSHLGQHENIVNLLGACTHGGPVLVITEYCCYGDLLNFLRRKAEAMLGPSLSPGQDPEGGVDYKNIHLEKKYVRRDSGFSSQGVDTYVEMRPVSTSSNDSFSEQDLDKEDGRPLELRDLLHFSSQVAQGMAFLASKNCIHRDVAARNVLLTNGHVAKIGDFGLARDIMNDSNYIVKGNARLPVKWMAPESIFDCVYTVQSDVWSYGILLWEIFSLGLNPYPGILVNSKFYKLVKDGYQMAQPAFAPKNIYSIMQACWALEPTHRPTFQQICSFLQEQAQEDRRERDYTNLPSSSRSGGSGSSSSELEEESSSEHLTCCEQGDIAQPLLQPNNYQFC
Description: In one assay the biochemical activity IC50 values are determined with respect to inhibition of Fms kinase activity, where inhibition of phosphorylation of a peptide substrate is measured as a function of compound concentration. Compounds to be tested, dissolved in DMSO (1 μL), are added to a white 384-well plate (Costar #3705). Working stocks of Fms kinase (Invitrogen #PV3249), biotin-(E4Y)10 substrate (Upstate Biotech, Cat#12-440), and ATP (Sigma, Cat#A-3377) are prepared in 25 mM Hepes pH 7.5, 0.5 mM MgCl2, 2 mM MnCl2, 2 mM DTT, 0.01% BSA, and 0.01% Tween-20. All components are added to the 384-well plate for a final concentration of 1 ng/well Fms, 30 nM biotin-(E4Y)10 (Upstate Biotechnology) and 100 μM ATP in a volume of 20 μL. Each sample is at 5% DMSO. The plate is then incubated for 20 minutes at 30° C. Just before use, working stocks of donor and acceptor beads from the AlphaScreen PY20 Detection Kit (PerkinElmer, Cat#676601M) are prepared in 25 mM Hepes pH 7.5, pH 7.4, 100 mM EDTA, 0.01% BSA. To stop the reaction, the plate is uncovered in the dark and 5 μL of Donor Beads solution (Streptavidin beads) is added to each well. The plate is incubated at room temperature for 20 minutes. Five microliters of Acceptor Beads solution (PY20 coated beads) are then added to each well. The final concentration of each bead is 10 μg/mL. The plates are incubated at room temperature for 60 minutes. Fluorescence signal is recorded on the Envision reader. […] The signal vs. compound concentration is used to determine the IC50.

[1] = Turbidity assay of relative solubility in aqueous buffers; assay type: physicochemical; conditions: pH 4.5 (SIF)
Description: As an indication of relative solubility, the turbidity of compounds in aqueous solutions is assessed. To assess possible compound properties in different physiological compartments, such as stomach, intestine, and blood, a series of aqueous buffers with varying pH is used. Thus each compound is diluted into four different physiologically relevant buffers and solution turbidity is measured by spectrophotometry.
Compounds are dissolved at a concentration of 25 mM in dimethyl sulfoxide, then serially diluted 1:1 into a 96 well plate, diluting 10 times in pure dimethyl sulfoxide, with the final well of each row a dimethyl sulfoxide blank. In an assay plate, 99 μL of appropriate buffer is added to each well, and 1 μL of each sample dilution is added to the buffer, achieving a range of final total concentrations in aqueous solutions having different pH. The buffers used are Simulated Gastric Fluid (SGF-pH 1.5) 0.5M NaCl, pH 1.5; Simulated Intestinal fluid (SIF-pH 4.5 and pH 6.8) 0.05M NaH2PO4, pH 4.5 and 6.8; and Hepes Buffer (HEPES-pH 7.4) 10 mM HEPES, 150 mM NaCl, pH 7.4. Control compounds pyrene, estriol and propranolol HCl are also assessed. Plates are spun and then mixed for 1 minute, and the absorbance is read using a Tecan Safire II to read wavelengths in the visible range (490, 535, and 650 nm) at four locations per well, reflecting the degree of turbidity present. The average optical density for each wavelength in each well is graphed vs. compound concentration, and the concentration at which the curve crosses a threshold O.D. of 0.01 for each wavelength is reported as the endpoint turbidity assay result. The average of the three wavelengths is used to compare turbidity of compounds. Compounds are considered to have low solubility if the threshold concentration is <31.3 μM, moderate solubility if the threshold concentration is 31.3 μM to 250 μM, and high solubility if the threshold concentration is >250 μM.

Chain of BCR-FMS/BaF3 cells (P07333 20-972 limits assumed, change not shown): as the sequence (P07333 20-972) above

| SMILES | IC50 (BCR-FMS/BaF3 cells; BCR-FMS/BaF3 cells, read-out: BCR/BaF3 (IC50 μM) Fms) [µM] | BCR/BaF3 selectivity (Kit IC50/Fms IC50) (BCR-FMS/BaF3 cells; Kit IC50/Fms IC50, BCR-KIT/BaF3 vs BCR-FMS/BaF3 cells) | IC50 (BCR-KIT/BaF3 cells) [µM] | IC50 (Fms kinase) [µM] | turbidity threshold (L, M, H) 4.5 [1] |
| --- | --- | --- | --- | --- | --- |
| COc1ccc(CNc2ccc(Cc3c[nH]c4ncc(Cl)cc34)cn2)c(OC)n1 [Compound P-1496, [5-(5-Chloro-1H-pyrrolo[2,3-b]pyridin-3-ylmethyl)-pyridin-2-yl]-(2,6-dimethoxy-pyridin-3-ylmethyl)-amine] | < 0.1 | >20 | > 0.1 | < 0.1 | – |
| COc1ncc(F)cc1CNc1ccc(Cc2c[nH]c3ncc(C#N)cc23)c(F)n1 [Compound P-2193, 3-{2-Fluoro-6-[(5-fluoro-2-methoxy-pyridin-3-ylmethyl)-amino]-pyridin-3-ylmethyl}-1H-pyrrolo[2,3-b]pyridine-5-carbonitrile] | – | – | – | – | L (low solubility if the threshold concentration is <31.3 μM) |
